Data set [1] concerns MCF-7 cells. Briefly: MTT cytotoxicity assay, MCF-7. Format: cell-based, human. Particulars: read-out: IC50 MCF-7. The method, then: (§1) The anticancer activities of compounds 17–24, 41–56 against MCF-7, MDA-MB-231 and hTERT-RPE1 cells were determined in vitro by an MTT assay. […] The data was calculated and presented as IC50 values in Table 1.
(§2) The cytotoxicities of the compounds were evaluated by the MTT assay, which is based on the conversion of MTT to formazan crystals by mitochondrial dehydrogenases. […] The medium was incubated with 20 μL of 5 mg/mL MTT solution for 3 h in a humidified incubator containing 5% CO2. The purple coloured formazan crystals formed in the wells were dissolved in DMSO and their absorbances were measured at 570 nm with a microplate reader. Cell viability was expressed as a percentage of the value in control cultures.
(In general: Tetrazolium assays rely on reduction of a dye to a coloured formazan, in cell work by metabolically active cells.)

Data set [2] relates to hTERT-RPE1 cells. Put plainly: MTT cytotoxicity assay, hTERT-RPE1 normal cells. Format: cell-based, human. As to conditions: read-out: IC50 hTERT-RPE1. The method, then: as §1, §2
Data set [3] has as its system MDA-MB-231 cells. Briefly: MTT cytotoxicity assay, MDA-MB-231. Format: cell-based, human. Particulars: read-out: IC50 MDA-MB-231. On the procedure:
The data was calculated and presented as IC50 values in Table 1.
as §2

Where [4] appears, read: MCF7, human breast cancer cell line MCF-7, MTT method, 24 h treatment, mean ± SD.
The mark [5] stands for this setting: normal human retinal pigment epithelial cell line hTERT-RPE1, MTT method, 24 h treatment, mean ± SD.
[6] abbreviates: human breast cancer cell line MDA-MB-231, MTT method, 24 h treatment, mean ± SD.

Structures are written as SMILES. Where a name gives a salt, the structure may show the parent alone. Read-outs that look alike come from different tables or passages of the source.

As a reminder, the melting point is the temperature of the solid-liquid transition. `COC(=O)/C=C/c1ccc(OC(=O)[C@@]2(C)CC[C@]3(C)CC[C@]4(C)C(=CC(=O)[C@@H]5[C@@]6(C)CC[C@H](OC(=O)[C@@H](N)CCSC)C(C)(C)[C@@H]6CC[C@]54C)[C@@H]3C2)c(OC)c1` (as salt: hydrochloride) [Compound 41, Ferulic acid methyl ester 3β-(l-methionine)-11-oxo-olean-12-en-30-oate hydrochloride] gave a melting point of 203 to 205 °C.

As usually defined, the IC50 is the midpoint of a concentration-inhibition curve. As for `COc1cccc2c1C(=O)c1c(O)c3c(c(O)c1C2=O)C[C@@](O)(C(=O)CO)C[C@@H]3O[C@H]1C[C@H](N)[C@H](O)[C@H](C)O1` [ADR, doxorubicin, reference compound], the values for the IC50 in data set [1] (setting [4]) and in data set [2] (setting [5]) were 0.49 ± 0.09 µM and 2.76 ± 0.11 µM, respectively.

For `COC(=O)/C=C/c1ccc(OC(=O)[C@@]2(C)CC[C@]3(C)CC[C@]4(C)C(=CC(=O)[C@@H]5[C@@]6(C)CC[C@H](OC(=O)[C@@H](N)CCSC)C(C)(C)[C@@H]6CC[C@]54C)[C@@H]3C2)c(OC)c1` [Compound 41, Ferulic acid methyl ester 3β-(l-methionine)-11-oxo-olean-12-en-30-oate hydrochloride], the IC50 in data set [1] (setting [4]) was determined as 6 ± 0.43 µM; in data set [3] (setting [6]) it was 3.52 ± 0.61 µM; in data set [2] (setting [5]), 10.4 ± 0.8 µM.

Consider `COC(=O)/C=C/c1ccc(OC(=O)[C@@]2(C)CC[C@]3(C)CC[C@]4(C)C(=CC(=O)[C@@H]5[C@@]6(C)CC[C@H](OC(=O)[C@@H](N)CC[Se]C)C(C)(C)[C@@H]6CC[C@]54C)[C@@H]3C2)c(OC)c1` [Compound 42, Ferulic acid methyl ester 3β-(l-selenomethionine)-11-oxo-olean-12-en-30-oate hydrochloride], for which the IC50 worked out at 1.88 ± 0.2 µM in data set [1] (Homo sapiens, MCF7, 24 h); 1.37 ± 0.18 µM in data set [3] (Homo sapiens, MDA-MB-231, 24 h); 4.93 ± 0.36 µM in data set [2] (Homo sapiens, hTERT-RPE1, 24 h).

In the case of `CCOC(=O)/C=C/c1ccc(OC(=O)[C@@]2(C)CC[C@]3(C)CC[C@]4(C)C(=CC(=O)[C@@H]5[C@@]6(C)CC[C@H](OC(=O)[C@@H](N)CCSC)C(C)(C)[C@@H]6CC[C@]54C)[C@@H]3C2)c(OC)c1` [Compound 43, Ferulic acid ethyl ester 3β-(l-methionine)-11-oxo-olean-12-en-30-oate hydrochloride], the IC50 in data set [1] (setting [4]) stood at 8.62 ± 0.23 µM; in data set [3] (setting [6]) it was 5.36 ± 0.44 µM; in data set [2] (setting [5]), 16.3 ± 0.51 µM.

In the case of `CCOC(=O)/C=C/c1ccc(OC(=O)[C@@]2(C)CC[C@]3(C)CC[C@]4(C)C(=CC(=O)[C@@H]5[C@@]6(C)CC[C@H](OC(=O)[C@@H](N)CC[Se]C)C(C)(C)[C@@H]6CC[C@]54C)[C@@H]3C2)c(OC)c1` [Compound 44, Ferulic acid ethyl ester 3β-(l-selenomethionine)-11-oxo-olean-12-en-30-oate hydrochloride], the IC50 in data set [1] (Homo sapiens, MCF7, 24 h) turned out to be 8.45 ± 0.32 µM; in data set [3] (Homo sapiens, MDA-MB-231, 24 h), 3.49 ± 0.61 µM; in data set [2] (Homo sapiens, hTERT-RPE1, 24 h), 12.3 ± 0.46 µM.

Turning to `COC(=O)/C=C/c1ccc(OC(=O)[C@@]2(C)CC[C@]3(C)CC[C@]4(C)C(=CC(=O)[C@@H]5[C@@]6(C)CC[C@H](OC(=O)[C@@H](N)CCSC)C(C)(C)[C@@H]6CC[C@]54C)[C@@H]3C2)cc1` [Compound 45, trans-4-Hydroxycinnamic acid methyl ester 3β-(l-methionine)-11-oxo-olean-12-en-30-oate hydrochloride], the IC50 in data set [1] (setting [4]) is 7.24 ± 0.3 µM; in data set [3] (setting [6]) it was 6.43 ± 0.84 µM; in data set [2] (setting [5]), 8.48 ± 0.73 µM.

For `COC(=O)/C=C/c1ccc(OC(=O)[C@@]2(C)CC[C@]3(C)CC[C@]4(C)C(=CC(=O)[C@@H]5[C@@]6(C)CC[C@H](OC(=O)[C@@H](N)CC[Se]C)C(C)(C)[C@@H]6CC[C@]54C)[C@@H]3C2)cc1` [Compound 46, trans-4-Hydroxycinnamic acid methyl ester 3β-(l-selenomethionine)-11-oxo-olean-12-en-30-oate hydrochloride], the IC50 in data set [1] (Homo sapiens, MCF7, 24 h) was determined as 6.02 ± 0.35 µM; in data set [3] (Homo sapiens, MDA-MB-231, 24 h) it was 6.27 ± 0.24 µM; in data set [2] (Homo sapiens, hTERT-RPE1, 24 h), 6.33 ± 0.19 µM.

For `CCOC(=O)/C=C/c1ccc(OC(=O)[C@@]2(C)CC[C@]3(C)CC[C@]4(C)C(=CC(=O)[C@@H]5[C@@]6(C)CC[C@H](OC(=O)[C@@H](N)CCSC)C(C)(C)[C@@H]6CC[C@]54C)[C@@H]3C2)cc1` [Compound 47, trans-4-Hydroxycinnamic acid ethyl ester 3β-(l-methionine)-11-oxo-olean-12-en-30-oatehydrochloride], the half-maximal inhibitory concentration (IC50) in data set [1] (setting [4]) came to 2.65 ± 0.12 µM; in data set [3] (setting [6]) it was 2.31 ± 0.65 µM; in data set [2] (setting [5]) it was 5.65 ± 1.02 µM.

As to `CCOC(=O)/C=C/c1ccc(OC(=O)[C@@]2(C)CC[C@]3(C)CC[C@]4(C)C(=CC(=O)[C@@H]5[C@@]6(C)CC[C@H](OC(=O)[C@@H](N)CC[Se]C)C(C)(C)[C@@H]6CC[C@]54C)[C@@H]3C2)cc1` [Compound 48, trans-4-Hydroxycinnamic acid ethyl ester 3β-(l-selenomethionine)-11-oxo-olean-12-en-30-oate hydrochloride], the IC50 turned out to be 2.42 ± 0.23 µM in data set [1] (Homo sapiens, MCF7, 24 h); 1.86 ± 0.29 µM in data set [3] (Homo sapiens, MDA-MB-231, 24 h); 7.08 ± 0.73 µM in data set [2] (Homo sapiens, hTERT-RPE1, 24 h).

As to `COC(=O)/C=C/c1ccc(OC)c(OC(=O)[C@@]2(C)CC[C@]3(C)CC[C@]4(C)C(=CC(=O)[C@@H]5[C@@]6(C)CC[C@H](OC(=O)[C@@H](N)CCSC)C(C)(C)[C@@H]6CC[C@]54C)[C@@H]3C2)c1` [Compound 49, Isoferulic acid methyl ester 3β-(l-methionine)-11-oxo-olean-12-en-30-oate hydrochloride], the IC50 in data set [1] (setting [4]) was 8.7 ± 0.14 µM; in data set [3] (setting [6]), 4.56 ± 0.36 µM; in data set [2] (setting [5]), 8.92 ± 0.55 µM.

With `COC(=O)/C=C/c1ccc(OC)c(OC(=O)[C@@]2(C)CC[C@]3(C)CC[C@]4(C)C(=CC(=O)[C@@H]5[C@@]6(C)CC[C@H](OC(=O)[C@@H](N)CC[Se]C)C(C)(C)[C@@H]6CC[C@]54C)[C@@H]3C2)c1` [Compound 50, Isoferulic acid methyl ester 3β-(l-selenomethionine)-11-oxo-olean-12-en-30-oate hydrochloride], the IC50 in data set [1] (Homo sapiens, MCF7, 24 h) is 5.12 ± 0.58 µM; in data set [3] (Homo sapiens, MDA-MB-231, 24 h) it was 3.13 ± 0.45 µM; in data set [2] (Homo sapiens, hTERT-RPE1, 24 h), 9.79 ± 0.37 µM.

As to `CCOC(=O)/C=C/c1ccc(OC)c(OC(=O)[C@@]2(C)CC[C@]3(C)CC[C@]4(C)C(=CC(=O)[C@@H]5[C@@]6(C)CC[C@H](OC(=O)[C@@H](N)CCSC)C(C)(C)[C@@H]6CC[C@]54C)[C@@H]3C2)c1` [Compound 51, Isoferulic acid ethyl ester 3β-(l-methionine)-11-oxo-olean-12-en-30-oate hydrochloride], the IC50 in data set [1] (setting [4]) came to 8.81 ± 0.2 µM; in data set [3] (setting [6]) it was 4.67 ± 0.74 µM; in data set [2] (setting [5]), 12.5 ± 0.4 µM.

Regarding `CCOC(=O)/C=C/c1ccc(OC)c(OC(=O)[C@@]2(C)CC[C@]3(C)CC[C@]4(C)C(=CC(=O)[C@@H]5[C@@]6(C)CC[C@H](OC(=O)[C@@H](N)CC[Se]C)C(C)(C)[C@@H]6CC[C@]54C)[C@@H]3C2)c1` [Compound 52, Isoferulic acid ethyl ester 3β-(l-selenomethionine)-11-oxo-olean-12-en-30-oate hydrochloride], the IC50 in data set [1] (Homo sapiens, MCF7, 24 h) turned out to be 6.93 ± 0.63 µM; in data set [3] (Homo sapiens, MDA-MB-231, 24 h), 3.27 ± 0.66 µM; in data set [2] (Homo sapiens, hTERT-RPE1, 24 h) it was 10.1 ± 0.28 µM.

Take `COC(=O)/C=C/c1cccc(OC(=O)[C@@]2(C)CC[C@]3(C)CC[C@]4(C)C(=CC(=O)[C@@H]5[C@@]6(C)CC[C@H](OC(=O)[C@@H](N)CCSC)C(C)(C)[C@@H]6CC[C@]54C)[C@@H]3C2)c1` [Compound 53, trans-3-Hydroxycinnamic acid methyl ester 3β-(l-methionine)-11-oxo-olean-12-en-30-oate hydrochloride]: the values for the 50% inhibitory concentration (IC50) in data set [1] (setting [4]), in data set [3] (setting [6]) and in data set [2] (setting [5]) were 7.2 ± 0.55 µM, 3.54 ± 0.46 µM and 8.49 ± 0.51 µM, respectively.

Consider `COC(=O)/C=C/c1cccc(OC(=O)[C@@]2(C)CC[C@]3(C)CC[C@]4(C)C(=CC(=O)[C@@H]5[C@@]6(C)CC[C@H](OC(=O)[C@@H](N)CC[Se]C)C(C)(C)[C@@H]6CC[C@]54C)[C@@H]3C2)c1` [Compound 54, trans-3-Hydroxycinnamic acid methyl ester 3β-(l-selenomethionine)-11-oxo-olean-12-en-30-oate hydro-chloride], for which the IC50 is 3.48 ± 0.82 µM in data set [1] (Homo sapiens, MCF7, 24 h); 2.46 ± 0.77 µM in data set [3] (Homo sapiens, MDA-MB-231, 24 h); 4.55 ± 0.44 µM in data set [2] (Homo sapiens, hTERT-RPE1, 24 h).

As for `CCOC(=O)/C=C/c1cccc(OC(=O)[C@@]2(C)CC[C@]3(C)CC[C@]4(C)C(=CC(=O)[C@@H]5[C@@]6(C)CC[C@H](OC(=O)[C@@H](N)CCSC)C(C)(C)[C@@H]6CC[C@]54C)[C@@H]3C2)c1` [Compound 55, trans-3-Hydroxycinnamic acid ethyl ester 3β-(l-methionine)-11-oxo-olean-12-en-30-oate hydrochloride], the IC50 turned out to be 5.79 ± 0.85 µM in data set [1] (setting [4]), 1.92 ± 0.91 µM in data set [3] (setting [6]) and 6.63 ± 0.22 µM in data set [2] (setting [5]).

For the compound `CCOC(=O)/C=C/c1cccc(OC(=O)[C@@]2(C)CC[C@]3(C)CC[C@]4(C)C(=CC(=O)[C@@H]5[C@@]6(C)CC[C@H](OC(=O)[C@@H](N)CC[Se]C)C(C)(C)[C@@H]6CC[C@]54C)[C@@H]3C2)c1` [Compound 56, trans-3-Hydroxycinnamic acid ethyl ester 3β-(l-selenomethionine)-11-oxo-olean-12-en-30-oate hydrochloride], the IC50 in data set [1] (Homo sapiens, MCF7, 24 h) stood at 2.57 ± 0.4 µM; in data set [3] (Homo sapiens, MDA-MB-231, 24 h) it was 1.53 ± 0.25 µM; in data set [2] (Homo sapiens, hTERT-RPE1, 24 h), 3.7 ± 0.29 µM.

Take `CC1(C)[C@@H](O)CC[C@]2(C)[C@H]3C(=O)C=C4[C@@H]5C[C@@](C)(C(=O)O)CC[C@]5(C)CC[C@@]4(C)[C@]3(C)CC[C@@H]12` [GA, glycyrrhetinic acid]: the half-maximal inhibitory concentration (IC50) was 75.7 ± 1.52 µM in data set [1] (setting [4]), 84.7 ± 1.73 µM in data set [3] (setting [6]) and 63.4 ± 1.07 µM in data set [2] (setting [5]).
